# Assay results as given in patent US9150581B2, “Nicotinic receptor compounds” (priority 2011, dated 2015).
# Experiments:
# mice [1] = assay: Antagonism of nicotine antinociception, hot-plate; format: in vivo, mouse; details: before nicotine 2.5 mg/kg sc
# Procedure: (§1) In the tail-flick method of D'Amour and Smith, (D'Amour, F. E.; Smith, D. L. J. Pharmacol. Exp. Ther. 1941, 72, 74-79), the tail is exposed to a heat lamp and the amount of time taken for the animal to move (flick) its tail away from the heat is recorded. […] Mice were placed into a 10-cm wide glass cylinder on a hot plate (Thermojust Apparatus) maintained at 55.0° C. Two control latencies at least 10 min apart were determined for each mouse. […] The reaction time was scored when the animal jumped or licked its paws. The mice were tested 5 min after subcutaneous (sc) injections of nicotinic ligands for the dose-response determination. Antinociceptive response was calculated as percentage of maximum possible effect (% MPE, where % MPE=[(test−control)/(maximum latency−control)×100]).
# (§2) Nicotine was administered at a dose of 2.5 mg/kg, sc (an ED84 dose), and mice were tested 5 min later. ED50 and AD50 values with 95% confidence limits were determined.
# mice [2] = assay: Antagonism of nicotine antinociception, tail-flick; format: in vivo, mouse
# Procedure: as §1, §2
# mice [3] = assay: Spontaneous activity (photocell activity cages); format: in vivo, mouse; details: sc
# Procedure: (§3) Interruptions of the photocell beams (two banks of eight cells each) were then recorded for the next 10 min. Data were expressed as number of photocell interruptions. Rectal temperature was measured by a thermistor probe (inserted 24 mm) and digital thermometer (Yellow Springs Instrument Co., Yellow Springs, Ohio). […] The difference in rectal temperature before and after treatment was calculated for each mouse. The ambient temperature of the laboratory varied from 21 to 24° C. from day to day.
# mice [4] = assay: Hot-plate test (antinociception); format: in vivo, mouse; details: sc
# Procedure: as §1
# α4β2 nAChR = α4β2 nAChR (Rattus norvegicus (Rat), UniProt P09483+P12390); assay: Inhibition of [3H]epibatidine binding at the α4β2 nAChR in male rat cerebral cortex; details: read-out: αβ [3H]Epibatidine (Ki)
# mice [5] = assay: Hypothermia (rectal temperature); format: in vivo, mouse; details: sc
# Procedure: as §3
# α7 nAChR = α7 nAChR (Rattus norvegicus (Rat), UniProt Q05941); format: binding; details: read-out: α7 [125I]iodoMLA (Ki)
# mice [6] = assay: Tail-flick test (antinociception); format: in vivo, mouse; details: sc
# Procedure: as §1
# α4β2 nAChR, sequence (P09483 31-630 limits assumed): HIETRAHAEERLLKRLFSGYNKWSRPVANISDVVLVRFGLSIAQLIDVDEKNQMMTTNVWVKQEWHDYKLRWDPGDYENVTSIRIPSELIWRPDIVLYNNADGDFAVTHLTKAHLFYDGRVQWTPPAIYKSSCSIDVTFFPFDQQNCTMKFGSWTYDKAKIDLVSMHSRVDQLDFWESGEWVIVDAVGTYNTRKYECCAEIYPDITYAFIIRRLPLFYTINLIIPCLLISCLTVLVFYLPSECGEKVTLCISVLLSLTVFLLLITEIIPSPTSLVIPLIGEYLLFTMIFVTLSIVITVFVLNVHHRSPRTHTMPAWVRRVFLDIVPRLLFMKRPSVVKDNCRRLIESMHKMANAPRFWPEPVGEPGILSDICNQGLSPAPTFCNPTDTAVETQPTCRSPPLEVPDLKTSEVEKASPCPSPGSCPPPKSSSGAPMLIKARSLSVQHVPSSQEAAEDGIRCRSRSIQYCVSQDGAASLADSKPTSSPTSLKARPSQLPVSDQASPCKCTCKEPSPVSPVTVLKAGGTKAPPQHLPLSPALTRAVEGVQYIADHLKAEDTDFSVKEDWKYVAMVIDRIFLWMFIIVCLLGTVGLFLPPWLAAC
# α4β2 nAChR, sequence (P12390 25-500 limits assumed): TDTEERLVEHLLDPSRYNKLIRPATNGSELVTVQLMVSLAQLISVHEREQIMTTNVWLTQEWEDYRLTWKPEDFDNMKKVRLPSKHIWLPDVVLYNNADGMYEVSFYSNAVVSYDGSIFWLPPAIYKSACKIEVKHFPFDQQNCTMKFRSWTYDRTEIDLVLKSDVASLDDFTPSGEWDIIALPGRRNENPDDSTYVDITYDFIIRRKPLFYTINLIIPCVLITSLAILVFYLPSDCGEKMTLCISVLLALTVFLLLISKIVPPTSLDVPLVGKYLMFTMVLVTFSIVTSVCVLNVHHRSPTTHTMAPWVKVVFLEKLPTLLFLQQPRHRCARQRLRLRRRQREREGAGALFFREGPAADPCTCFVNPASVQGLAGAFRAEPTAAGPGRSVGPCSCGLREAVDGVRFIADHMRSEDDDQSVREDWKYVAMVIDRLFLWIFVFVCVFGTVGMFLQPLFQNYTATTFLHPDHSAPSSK
# α7 nAChR, sequence (Q05941 23-502 limits assumed): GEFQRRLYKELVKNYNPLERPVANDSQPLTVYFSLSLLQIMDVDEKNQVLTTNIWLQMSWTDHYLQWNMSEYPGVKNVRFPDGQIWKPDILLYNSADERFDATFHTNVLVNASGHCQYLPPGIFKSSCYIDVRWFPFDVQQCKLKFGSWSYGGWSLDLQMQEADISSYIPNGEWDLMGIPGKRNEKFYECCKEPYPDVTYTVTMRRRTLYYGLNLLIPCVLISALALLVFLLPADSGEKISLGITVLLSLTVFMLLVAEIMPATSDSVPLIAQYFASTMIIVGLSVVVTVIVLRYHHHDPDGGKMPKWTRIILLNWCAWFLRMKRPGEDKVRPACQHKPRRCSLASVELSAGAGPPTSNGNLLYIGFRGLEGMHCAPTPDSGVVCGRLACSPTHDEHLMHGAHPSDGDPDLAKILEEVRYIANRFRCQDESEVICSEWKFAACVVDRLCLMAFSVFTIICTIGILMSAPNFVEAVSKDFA
substance,measurement,setting,value
2-exo-2-Fluoro-3-(3′-benzamide)deschloroepibatidine Hydrochloride [RTI-7527-169],"Antagonism Hot-Plate, % at dose",mice [1]; @ 500 μg/kg,20% @
same,"Antagonism Tail-Flick, % at dose","mice [2]; @ 500 μg/kg, before nicotine 2.5 mg/kg sc",10% @ 500
same,ED50 Spontaneous Activity,mice [3],1 mg/kg
same,ED50 Hot-Plate,mice [4]; tested 5 min after injection,3.6 mg/kg
same,Ki,α4β2 nAChR,0.36 ± 0.088 nM
same,ED50 Hypothermia,mice [5],1.7 mg/kg
same,Ki,α7 nAChR,870 nM
same,ED50 Tail-Flick,mice [6]; tested 5 min after injection,5.6 mg/kg
2-exo-2-Fluoro-3-(4′-benzamide)deschloroepibatidine Hydrochloride [RTI-7527-168],"Antagonism Hot-Plate, % at dose",mice [1]; @ 2000 μg/kg,1% @
same,AD50 Tail-Flick,mice [2]; mice pretreated sc 10 min before nicotine 2.5 mg/kg sc,9 µg/kg
same,ED50 Spontaneous Activity,mice [3],3.5 mg/kg
same,"Hot-Plate, % effect at dose",mice [4]; @ 10 mg/kg,60% @ 10
same,Ki,α4β2 nAChR,0.12 ± 0.021 nM
same,ED50 Hypothermia,mice [5],4.2 mg/kg
same,Ki,α7 nAChR,1870 nM
same,"Tail-Flick, % effect at dose",mice [6]; @ 10 mg/kg,16% @ 10
